Test results from patent US4309425A (priority 1980, dated 1982).
Read-outs that look alike come from different tables or passages of the source.

Key:
Erysiphe cichoracearum [1] = assay: cucumber powdery mildew preventive test; format: in vivo; conditions: Golovinomyces cichoracearum, 168 h, 7 days
Description: Compounds of this invention are dissolved in acetone in an amount equal to 6% of the final volume and then suspended at a concentration of 20 ppm in purified water containing 25 ppm of the surfactant Alkanol® XC (sodium alkyl naphthalene sulfonate). This suspension is sprayed to the point of run-off on cucumber seedlings. The following day, the plants are inoculated with a spore suspension of the fungus Erysiphe cichoracearum and incubated in a growth room for 7 days. Disease ratings are then made. […] Phytotoxicity in the form of foliar burn or growth reduction was observed on some of the plants in association with disease control.

[2] = test system: Puccinia graminis var. tritici; assay: whole plant or invertebrate; format: in vivo; conditions: 192 h, read-out: % control wheat rust in a photostability test
Phytophthora infestans = assay: whole plant or invertebrate; format: in vivo; conditions: in Solanum lycopersicum, 96 h, read-out: % control tomato late blight in a photostability test
Erysiphe cichoracearum [3] = assay: cucumber powdery mildew photostability test; format: in vivo; conditions: Golovinomyces cichoracearum, 168 h, xenon arc 3500 foot candles 16 hours, 7 days
Description: (§1) Compounds of this invention are dissolved in acetone in an amount equal to 6% of the final volume and then suspended at a concentration of 20 ppm in purified water containing 25 ppm of the surfactant Alkanol® XC (sodium alkyl naphthalene sulfonate). This suspension is sprayed to the point of run-off in cucumber seedlings. When the foliage is dry, the plants are exposed to 3500 foot candles of light from a xenon arc source for a period of 16 hours. This light source approximates the spectrum of natural sunlight, and is used to assess photostability of the compounds of this invention on plant foliage. The following day, the plants are inoculated with a spore suspension of the fungus Erysiphe cichoracearum and incubated in a growth room for 7 days. Disease ratings are then made.

[4] = test system: Puccinia graminis var. tritici; assay: whole plant or invertebrate; format: in vivo; conditions: 192 h, read-out: % control wheat rust in residual wash-off test
Erisyphe cichoracearum = assay: cucumber powdery mildew curative test; format: in vivo; conditions: Cucumis sativus, 144 h, sprayed day after inoculation, additional 6 days
From the text: Cucumber plants are inoculated with a spore suspension of the fungus Erisyphe cichoracearum and in a growth room overnight. The following day, the plants are sprayed to the point of run-off with a suspension prepared by dissolving compounds of this invention in acetone in an amount equal to 6% of the final volume and then suspended at a concentration of 20 ppm in purified water containing 25 ppm of the surfactant Alkanol® XC (sodium alkyl naphthalene sulfonate). Plants are returned to the growth room for an additional 6 days when disease ratings are then made. […] Phytotoxicity in the form of foliar burn or growth reduction was observed on some of the plants in association with disease control.

Erysiphe cichoracearum [5] = assay: cucumber powdery mildew residual wash-off test; format: in vivo; conditions: Golovinomyces cichoracearum, 168 h, 1/2 inch simulated rainfall, 7 days
Description: (§2) Compounds of this invention are dissolved in acetone in an amount equal to 6% of the final volume and then suspended at a concentration of 20 ppm in purified water containing 25 ppm of the surfactant Alkanol® XC (sodium alkyl naphthalene sulfonate). This suspension is sprayed to the point of run-off on cucumber seedlings. The following day, 1/2 inch of simulated rainfall is applied to the foliage of the plants. When the foliage is dry, the plants are inoculated with a spore suspension on the fungus Erysiphe cichoracearum and incubated in a growth room for 7 days. Disease ratings are then made.

Rhizoctonia solani = Rhizoctonia solani infested soil test, cotton; format: in vivo; conditions: 192 h, 1.5 kg/ha, 8 days
From the text: Rhizoctonia solani-infested soil was placed in a 900 cc cup. Compounds of this invention were mixed at a rate of 1.5 kg/ha in a section 2" wide×2" deep×4" long to simulate an in-the-row application. Five cotton seeds were planted in the treated soil. After 8 days, the cotton plants were removed and rated for disease control.

[6] = test system: Eggs of the beet armyworm (Spodoptera exigua); assay: beet armyworm egg (ovicidal) test, % eggs failing to hatch; format: in vivo; conditions: 72 h, three days, read-out: % Control (% eggs failing to hatch); for mortality at 1 %: 1% in acetone
Description: Eggs of the beet armyworm (Spodoptera exigua), laid on cellophane discs each containing 50-75 eggs, were placed in petri dishes and lightly sprayed with 1% concentrations of the indicated compounds in acetone solution. Three days later, percent control (% eggs failing to hatch) was determined.
Eggs of the beet armyworm (Spodoptera exigua), laid on cellophane discs each containing 50-75 eggs, were placed in petri dishes and lightly sprayed with 200 ppm concentration of the indicated compounds in acetone solution. Three days later, percent control (% eggs failing to hatch) was determined.

Venturia inaequalis [7] = assay: apple scab photostability test; format: in vivo; conditions: xenon arc 3500 foot candles 16 hours, 10-12 days
Description: as §1, with “on apple” for “in cucumber”, “Venturia inaequalis” for “Erysiphe cichoracearum”, “10-12” for “7”, “made. […] Phytotoxicity in the form of foliar burn was observed on some of the plants in association with disease control.” for “made.”

Sclerotinia sclerotiorum = assay: white mold on carrot sections dip test; conditions: 100 ppm dip, 20° C., six days
Description: Surface-sterilized carrot sections were dipped two minutes in a 100 ppm solution of the compounds of this invention. Additional sections were dipped in a check solution which contained 500 ppm Alkanol® XC (sodium alkyl naphthalene sulfonate). After inoculation by placing a mycelial plug of Sclerotinia sclerotiorum on each carrot section, the test was held at 20° C. for six days.
The untreated carrot sections were completely invaded with the mycelial growth of white mold fungus, but the treated sections had little or no growth by this disease causing organism.

[8] = test system: Puccinia graminis var. tritici; assay: whole plant or invertebrate; format: in vivo; conditions: 192 h, read-out: % control wheat rust in preventive test
Venturia inaequalis [9] = assay: apple scab residual wash-off test; format: in vivo; conditions: 1/2 inch simulated rainfall, 10-12 days
Description: as §2, with “on apple” for “on cucumber”, “suspension of” for “suspension on”, “fungus Venturia inaequalis” for “fungus Erysiphe cichoracearum”, “for 10-12” for “for 7”, “made. […] Phytotoxicity in the form of foliar burn was observed on the plants in association with disease control.” for “made.”

Compound | pest or weed control at 20 ppm (Erysiphe cichoracearum [1]) [%] | pest or weed control at 20 ppm [2] [%] | pest or weed control at 20 ppm (Phytophthora infestans) [%] | pest or weed control at 20 ppm (Erysiphe cichoracearum [3]) [%] | pest or weed control at 20 ppm [4] [%] | pest or weed control at 20 ppm (Erisyphe cichoracearum) [%] | pest or weed control at 20 ppm (Erysiphe cichoracearum [5]) [%] | pest or weed control at 1500 g/ha (Rhizoctonia solani) [%] | mortality at 1 % [6] [%] | pest or weed control at 20 ppm (Venturia inaequalis [7]) [%] | % control White Mold (Sclerotinia sclerotiorum) [%] | pest or weed control at 20 ppm [8] [%] | pest or weed control at 20 ppm (Venturia inaequalis [9]) [%] | mortality at 200 ppm ([6]; 200 ppm in acetone) [%]
Cc1ccc(S(=O)(=O)N(C)SN(c2cc(C(F)(F)F)ccc2Cl)c2c([N+](=O)[O-])cc([N+](=O)[O-])cc2C(F)(F)F)cc1 | 100 | 40 | 50 | 0 | 100 | 100 | 92 | 100 | 100 | 100 | 100 | 80 | 100 | 
CCCCN(SN(c1cc(C(F)(F)F)ccc1Cl)c1c([N+](=O)[O-])cc([N+](=O)[O-])cc1C(F)(F)F)S(=O)(=O)c1ccccc1C | 100 | 98 | 90 | 100 | 100 | 93 | 100 | 50 | 100 | 80 | 100 | 100 | 100 | 
CCCCN(SN(c1cc(C(F)(F)F)ccc1Cl)c1c([N+](=O)[O-])cc([N+](=O)[O-])cc1C(F)(F)F)S(=O)(=O)c1ccc(C)cc1 | 100 | 100 | 95 | 75 | 100 | 92 | 100 | 100 |  | 0 | 86 | 100 | 100 | 100
